Starred links: 1 amine or outer side, 2 acyl side, 3 side chain; linkers in the order of their positions; H or OH if unused. Positions of bridges follow the written chain, without caps; N, C: chain ends. Non-standard residues stand in square brackets, D forms with d. Residues, ends and D or L forms follow the SMILES beside them. *: point of attachment. hTyr(3S-OH,4S-OH,3'-OSO3H) = N[C@H](C(=O)O)[C@H](O)[C@@H](O)c1ccc(O)c(OS(=O)(=O)O)c1; Orn(4R-OH,5R-OH) = O=C([C@H](C[C@@H](O)[C@@H](O)N[*:3])N[*:1])[*:2]; Pro(3S-OH,4S-Me) = C[C@H]1CN[C@H](C(=O)O)[C@H]1O; X1 = CCCCCOc1ccc(-c2cc(-c3ccc(C(=O)*)cc3)no2)cc1; Gln(3R-OH) = NC(=O)C[C@@H](O)[C@H](N)C(=O)O; Hyp = O=C(O)[C@@H]1C[C@@H](O)CN1
Tests used:
[1] = test system: Aspergillus fumigatus; assay: Antifungal exposure modulates the release of VOCs in A. fumigatus in vitro (headspace GC-MS); format: cell-based; settings: for change in key A. fumigatus VOC features at 24 hours: compared to matched control samples
Experimental: For each experiment, 10^4 conidia were inoculated into 5 mL of microbial media (either nutrient Yeast Extract Peptone Dextrose (YPD) broth, nutrient poor Aspergillus minimal media (Pontecorvo et al., Advan Genet 1953; 5:141-238), or under iron-starved, alkaline stress, or nitrogen-depleted conditions (McDonagh et al., PLoS Pathog 2008; 4:e1000154)) in 20 mL glass vials with an airtight crimp top incorporating a rubber septum. Cultures were incubated for 24-144 hours at 200 rpm and 37° C. and headspace gas was dynamically adsorbed, using argon carrier gas and an air sampling pump calibrated to 20 mL/minute, onto Markes thermal desorption traps containing tandem beds of Tenax TA (200 mg), Carbograph 1 TD (100 mg), and Carboxen 1003 (100 mg), optimized to retain VOCs of diverse size and polarity.
Headspace VOCs were also collected after exposure of a subset of fungal isolates to the antifungal drugs voriconazole, liposomal amphotericin B, and micafungin, each at a concentration of […].
VOCs were desorbed onto a dual GC-MS/DMS system (FIG. 1)—the eluent from the gas chromatograph was split between the MS, to allow identification of each compound, and the DMS, an extremely sensitive and selective gas detector that can be easily used as a point-of-care gas detection device, to determine the mobility pattern for each compound. The NIST MS Search 2.0 Library was used to identify VOCs in the total ion chromatogram (TIC) of the GC-MS data. Differences in spectral features of DMS output were visually distinguished between the positive ion spectra of A. fumigatus and A. terreus and principal component analysis (PCA) was used to evaluate the degree of class discrimination between these fungal species using algorithms in MATLAB (Version R2012a).
Whether exposure to antifungal drugs might modulate VOC release in Aspergillus fumigatus was assessed in vitro.

[2] = test system: A. terreus; settings: some isolates; Baddley et al., J. Clin. Microbiol. 2009; cited from earlier work
[3] = added to 48-hour hyphal cultures, after 24 hours, 1.0 mg/mL

Row | SMILES | increase in some of the key A. fumigatus VOC features ([1]; added to 48-hour hyphal cultures, after 24 hours, compared to matched control samples without drug, 1.0 mg/mL) [fold] | change in key A. fumigatus VOC features at 24 hours [1, 3] | key A. fumigatus VOC features with longer incubation ([1]; longer duration of incubation and hyphal death) | susceptibility of A. terreus isolates [2]
1 | CCCCCOc1ccc(-c2cc(-c3ccc(C(=O)N[C@H]4C[C@@H](O)[C@@H](O)NC(=O)[C@@H]5[C@@H](O)[C@@H](C)CN5C(=O)[C@H]([C@H](O)CC(N)=O)NC(=O)[C@H]([C@H](O)[C@@H](O)c5ccc(O)c(OS(=O)(=O)O)c5)NC(=O)[C@@H]5C[C@@H](O)CN5C(=O)[C@H]([C@@H](C)O)NC4=O)cc3)no2)cc1 [micafungin] (X1-[Orn(4R-OH,5R-OH)]T[Hyp][hTyr(3S-OH,4S-OH,3'-OSO3H)][Gln(3R-OH)][Pro(3S-OH,4S-Me)]; lactam 1-C) | ≤ 17 | initial increase | attenuation | 
2 | C[C@@H](c1ncncc1F)[C@](O)(Cn1cncn1)c1ccc(F)cc1F [voriconazole] |  | near-complete attenuation |  | 
3 | C[C@@H]1[C@H](O)[C@@H](C)/C=C/C=C/C=C/C=C/C=C/C=C/C=C/[C@H](O[C@@H]2O[C@H](C)[C@@H](O)[C@H](N)[C@@H]2O)C[C@@H]2O[C@](O)(C[C@@H](O)C[C@@H](O)[C@H](O)CC[C@@H](O)C[C@@H](O)CC(=O)O[C@H]1C)C[C@H](O)[C@H]2C(=O)O [AMB, amphotericin B] |  |  |  | resistant

Reference: patent publication US10031125B2, “Diagnosis and treatment of invasive aspergillosis” (THE BRIGHAM AND WOMEN'S HOSPITAL, INC., priority 2012, dated 2018)
